Experimental data published in patent US6664309B2, “Antimicrobial hot melt adhesive” (priority 2000, dated 2003).

What was measured:
Gram Positive Bacteria = assay: Bacterial growth testing on inoculated agar plates, nonwoven with adhesive; assay type: cell-based, gram-positive cocci similar to a Staphylococcus type; conditions: nonwoven with 3 gsm adhesive on inoculated agar plate, 35±2° C., 24 hours, observed for areas of non-growth
Description: A control mix, a mix with 0.5% triclosan, and a mix with 0.75% triclosan, were made of each product at 300° F. Each of the adhesives were applied at 300° F. to a standard 15.3 grams/m^2 (gsm) nonwoven substrate on the CT225 coater using a Nordson Control Weave applicator at 0.5 inch wide. The adhesive add-on level was 3 gsm. The pattern was fiberized. The nonwoven/adhesive was combined to release paper for easy removal for testing.
Ready-made petri plates of agar were used for this experiment. Inoculates were prepared using a barium sulfate standard for a turbidity of 150,000,000 bacteria/ml. The plates were inoculated using a sterile swab by streaking bacteria in three directions (to ensure complete coverage). A midline was drawn on each plate with a marker. To one side a piece of nonwoven (0.5×1.0″) was set on the inoculated plate. A sample of nonwoven with adhesive was positioned on the other half. The plates were incubated at 35±2° C. for 24 hours and observed for areas of non-growth. Photographs were taken using a digital camera. The following table outlines the samples tested and the results for each bacteria type.
Because triclosan is a broad-spectrum bacteriostat, it was thought that it would work on both the gram positive and the gram-negative strains. […]

[1] = cited from earlier work

Oc1cc(Cl)ccc1Oc1ccc(Cl)cc1Cl [triclosan, 2,4,4′-trichloro-2′-hydroxy-diphenyl-ether]
Bacterial growth, Gram Positive Bacteria (Gram Positive Bacteria): effective at inhibiting the growth
Solubility in water [1]: practically insoluble in water
